According to publication PMC12114840, “Exploring the Anticancer Properties of 1,2,3-Triazole-Substituted Andrographolide Derivatives” (Pharmaceuticals, 2025):

Experiments:
Type in all cases: cell-based, human
cleaved PARP-1 = assay: Western blot, cleaved PARP-1; details: PANC-1, 3 and 6 μM, 48 h
Description: To further investigate the mechanism of action of the triazole derivative 12, an apoptosis analysis was subsequently performed in PANC-1 cells. The early stages of apoptosis are characterized by the disruption of membrane asymmetry and the translocation of phosphatidylserine from the inner to the outer leaflet of the plasma membrane, which can be detected using Annexin V-FITC, a protein with high affinity for phosphatidylserine. In the later stages of apoptosis, the cell membrane loses its integrity, allowing propidium iodide (PI) to penetrate into the cell. Thus, PANC-1 cells treated with compound 12 at 3 and 6 μM for 48 h were analyzed by flow cytometry after Annexin V-FITC and PI staining (Figure 1B, bottom panel; and Figure 1D). This analysis can distinguish and quantify viable cells (annexin V−, PI−), early apoptotic cells (annexin V+, PI−), late apoptotic cells (annexin V+, PI+), and necrotic cells (annexin V−/PI+). […]
PANC-1 (1.5 × 10^5 cells/well) were seeded in six-well plates, allowed to adhere overnight, and treated with 3 µM and 6 µM of compound 12 for 48 h. Protein lysates were obtained in RIPA buffer with protease inhibitors (Sigma-Aldrich, Lisbon, Portugal) and quantified using Pierce® bicinchoninic acid (BCA) protein assay reagents (Thermo Fisher Scientific, Porto Salvo, Portugal). […]

PANC-1 cells [1] = assay: Drug combination assay with 5-fluorouracil (SRB, CompuSyn); details: PANC-1, 48 h
Description: Using the CompuSyn software (version 1.0), a multiple drug effect analysis was performed for each combination, to determine combination index (CI) and dose-reduction index (DRI) values. CI values indicate the effect of combining multiple drugs as synergistic (CI < 1), additive (CI = 1), or antagonistic (CI > 1). DRI values represent the fold decrease in the dose of a drug needed when in combination to achieve the same efficacy as the drug alone. DRI values > 1 are favorable given the concern for toxicity when combining multiple drugs.
The effect on cell proliferation was analyzed by SRB assay. […] Synergistic interactions of drugs were indicated as CI < 1, antagonist interactions as CI > 1.1, and additive effects as 1 < CI < 1.1.

p21 = assay: Western blot, p21; details: PANC-1, 3 and 6 μM, 48 h
Description: To elucidate the antiproliferative activity of compound 12, cell cycle analysis was performed in the PANC-1 cancer cell line. The cell cycle is a highly controlled process where cellular DNA is replicated and then equally partitioned in two daughter cells. The cell cycle is composed of two distinct phases: the interphase, where the cell grows and undergoes three distinct periods—the G1 (pre-DNA synthesis), S (DNA synthesis), and G2 (pre-division) phases—and mitosis, where cell undergoes division. The newly formed daughter cells then enter the preparatory phases of interphase, and start the G0 phase (quiescence). […] Thus, PANC-1 cells were treated with compound 12 at 3 and 6 µM for 48 h and then analyzed by flow cytometry (Figure 1B,C).
PANC-1 (1.5 × 10^5 cells/well) were seeded in six-well plates, allowed to adhere overnight, and treated with 3 µM and 6 µM of compound 12 for 48 h. Protein lysates were obtained in RIPA buffer with protease inhibitors (Sigma-Aldrich, Lisbon, Portugal) and quantified using Pierce® bicinchoninic acid (BCA) protein assay reagents (Thermo Fisher Scientific, Porto Salvo, Portugal). […] The signal was detected with enhanced chemiluminescence (ECL) (Amersham, GE Healthcare Life Sciences, Enzymatic, Portugal) using the ChemiDoc^TM MP Imaging system (BioRad Laboratories, Amadora, Portugal).

PANC-1 cells [2] = assay: Scratch (wound healing) assay; details: PANC-1, 1.35 µM, 6 h and 24 h
Description: Metastasis remains the greatest challenge in the clinical management of cancer. Cell migration is a key process that, during the whole cascade of cancer development, contributes to tumor invasion and metastasis. The scratch assay is a common in vitro technique used to assess two-dimensional cell migration and motility. It involves creating an artificial scratch or “wound” in a confluent monolayer of cells and then monitoring the progression of the wound over time. Therefore, a wound healing assay was used to evaluate the effect of compound 12 on the cell migration ability of PANC-1 cells.
Totals of 6 × 10^5 PANC-1 cells/well were grown to confluence in 6-well plates, and a fixed-width wound was created in the cell monolayer using a sterile 10 µL micropipette tip. Cells were treated with DMSO or 1.35 µM of compound 12 and images of the wound were captured at different time points (0, 6, and 24 h) using an inverted NIKON TE 2000-U microscope from Nikon Instruments Inc. (Izasa, Carnaxide, Portugal) at 100× magnification with a DXM1200F digital camera (Nikon Instruments Inc., Amstelveen, The Netherlands) and NIS-Elements microscope imaging software (version 4; Nikon Instruments Inc.). Wound closure was calculated by subtracting the wound area (measured using Fiji Software, version 1.54f) at the indicated time point of treatment from the wound area at the starting point (0 h).

PANC-1 cells [3] = assay: Annexin V-FITC/PI double-staining apoptosis assay; details: 48 h
Description: To further investigate the mechanism of action of the triazole derivative 12, an apoptosis analysis was subsequently performed in PANC-1 cells. The early stages of apoptosis are characterized by the disruption of membrane asymmetry and the translocation of phosphatidylserine from the inner to the outer leaflet of the plasma membrane, which can be detected using Annexin V-FITC, a protein with high affinity for phosphatidylserine. In the later stages of apoptosis, the cell membrane loses its integrity, allowing propidium iodide (PI) to penetrate into the cell. Thus, PANC-1 cells treated with compound 12 at 3 and 6 μM for 48 h were analyzed by flow cytometry after Annexin V-FITC and PI staining (Figure 1B, bottom panel; and Figure 1D). This analysis can distinguish and quantify viable cells (annexin V−, PI−), early apoptotic cells (annexin V+, PI−), late apoptotic cells (annexin V+, PI+), and necrotic cells (annexin V−/PI+). […] Cleavage of PARP-1 into an 89 kDa protein, cleaved PARP-1, occurs during programmed cell death (apoptosis) as a result of proteolytic processing by active caspase-3. Thus, cleaved PARP-1 is recognized as a marker of apoptosis.
The analyses were performed as described in the literature. In particular, 1.5 × 10^5 PANC-1 cells/well were seeded in 6-well plates and allowed to adhere overnight, followed by treatment with 3 µM and 6 µM of compound 12 for 48 h. For cell cycle analysis, cells were stained with propidium iodide (Sigma-Aldrich) and subjected to flow cytometry. Cell cycle phases were identified and quantified using the FlowJo X 10.0.7 software (Treestar, Ashland, OR, USA). For apoptosis analysis, cells were stained using the Annexin V-FITC Apoptosis Detection Kit I from BD Biosciences (Enzifarma, Porto, Portugal), according to the manufacturer’s instructions. The Accuri^TM C6 flow cytometer and the BD Accuri C6 software (BD Biosciences, Heidelberg, Germany) were used.

C=C1CC[C@@H]2[C@](C)(COC(C)=O)[C@H](OC(C)=O)CC[C@@]2(C)[C@@H]1C[C@H](C1=CCOC1=O)n1cc(-c2ccc(Br)cc2)nn1 [Compound 12, (12R)-4-bromophenyl-1,2,3-triazole-3,19-diacetoxy-14-deoxy-andrographolide]
levels of cleaved PARP-1 (cleaved PARP-1): significant increase in the levels of cleaved PARP-1
combination index (CI) (PANC-1 cells [1]; 5-FU 3.75 µM + 1.35 µM of compound 12): 0.87
combination index (CI) (PANC-1 cells [1]; 5-FU 7.5 µM + 1.35 µM of compound 12): 0.90
expression of p21 (p21): increased the expression of p21 in a dose-dependent manner
wound closure compared to control (PANC-1 cells [2]): significantly reduced the wound closure
viability at 3 µM (PANC-1 cells [3]; Homo sapiens, PANC-1, 3 µM, read-out: viable cells (annexin-V−, PI−; Q4)): 79.7%
viability at 6 µM (PANC-1 cells [3]; Homo sapiens, PANC-1, 6 µM, read-out: viable cells (annexin-V−, PI−; Q4)): 68.4%
early apoptotic cells (annexin V+, PI−; Q3) (PANC-1 cells [3]; PANC-1, 3 µM): 7.08%
late apoptotic cells (annexin V+, PI+; Q2) (PANC-1 cells [3]; PANC-1, 3 µM): 10.2%
percentage of apoptotic cells (Annexin V+) (PANC-1 cells [3]; PANC-1, 3 µM): 17.28%
early apoptotic cells (annexin V+, PI−; Q3) (PANC-1 cells [3]; PANC-1, 6 µM): 13.3%
late apoptotic cells (annexin V+, PI+; Q2) (PANC-1 cells [3]; PANC-1, 6 µM): 13.5%
percentage of apoptotic cells (Annexin V+) (PANC-1 cells [3]; PANC-1, 6 µM): 26.8%
